The results in this text go back to PubChem BioAssay AID1963863 (Molecular Pharmacology Branch, DTP, NCI, 2024).

Several values for one entry are separate records, joined by “and”; a condition that tells them apart may be missing. Equal values may be shown once.

The test system of the experiment is 931267-113-T-J1-PDC KRAS spheroid with HUVEC/MSC, viability. As to the kind of experiment: Anticancer human tumor 931267-113-T-J1-PDC patient-derived colon adenocarcinoma cell line growth inhibition [KRAS2]. As to conditions: for viability, T/C: stronger effect = lower value. The text has this:
Multicellular complex tumor spheroid response to RAS pathway inhibitors in combination with a targeted agents in patient-derived cell lines with oncogenic KRAS variants from multiple cancer types
A high-throughput screen of multi-cell type tumor spheroids was designed to identify active combinations of targeted small molecules and KRAS pathway inhibitors. Complex spheroids include a stromal component modeled by human endothelial cells (HUVEC) and fibroblasts modeled by human mesenchymal stem cells (MSCs). The concentration ranges selected for each drug and investigational agent were based upon clinically achievable concentrations if the clinical Cmax of the agent was known.
Compounds. The drugs and investigational agents: BI-3406 (NSC825286), BAY-293 (NSC824723), batoprotafib (TNO155; NSC825523), sotorasib (AMG 510; NSC818433), MRTX1257 (NSC819558), elimusertib (BAY 1895344; NSC800525), molibresib (GSK525762; NSC774829), temuterkib (LY3214996; NSC803410), venetoclax (NSC766270), alisertib (NSC759677), olaparib (NSC753686), talazoparib (NSC767125), erdafitinib (NSC781556), ipatasertib (NSC767898), cabozantinib (NSC761068), nintedanib (NSC756659), abemaciclib (NSC768073), docetaxel (NSC628503), trametinib (NSC758246), and sapanisertib (NSC764658) were obtained from the National Cancer Institute (NCI) Developmental Therapeutics Program Chemical Repository. The FDA-approved anticancer drug set is available from the Developmental Therapeutics Program. […] The stock solutions were prepared in dimethyl sulfoxide (DMSO, Sigma-Aldrich, St. Louis, MO, cat. D2650) at 800-fold the tested concentration and stored at -70 degrees C prior to their use. All drugs and investigational agents were tested over a range starting from a high concentration at or near the clinical Cmax and decreasing in half-log increments. If the clinical Cmax for an agent had not been determined, the highest concentration tested was 10 microM.
Cell Culture. All cells were maintained in an incubator at 37 degrees C and 5% CO2 with 95% humidity. The PDC lines were cultured according to standard operating procedures established by the NCI PDMR (https://pdmr.cancer.gov/sops/default.htm). Briefly, all PDCs were thawed and cultured in Matrigel-coated flasks prepared with a working solution of 1X Ham's F-12 nutrient mix, without supplementation (Invitrogen, Waltham, MA, cat. 11765054), 100 U/mL penicillin-streptomycin (Invitrogen, cat. 15140122), and 2.5% Matrigel (Corning Inc., Corning, NY, cat. 354248) for the first three passages. All PDCs were cultured in complete DMEM/F-12 media containing advanced DMEM/F-12 (Invitrogen, cat. 12634028), 4.9% defined fetal bovine serum, heat inactivated (HyClone Laboratories Inc., Logan, UT, cat. SH30070.03HI), 389 ng/mL hydrocortisone (Sigma-Aldrich, cat. H4001), 9.7 ng/mL human EGF recombinant protein (Invitrogen, cat. PHG0313), 23.4 microg/mL adenine (Sigma-Aldrich, cat. A2786), 97.3 U/mL penicillin-streptomycin (Invitrogen, cat. 15140122), 1.9 mM L-glutamine (Invitrogen, cat. 25030081), and 9.7 microM Y-27632 dihydrochloride (Tocris Bioscience, Bristol, United Kingdom, cat. 1254). The PDCs were cultured in complete DMEM/F12 media without 9.7 microM Y-27632 dihydrochloride for at least two passages prior to the screen. The established cell line HOP-62 was cultured in RPMI 1640 medium, HEPES (Invitrogen, cat. 22400105) with 10% defined fetal bovine serum (HyClone Laboratories Inc., cat. SH30070.03) and 2 mM L-glutamine (Invitrogen, cat. 25030081). The pooled donor HUVEC were cultured in endothelial cell growth medium 2 (PromoCell, Heidelberg, Germany, cat. C-22011) and the hMSC were cultured in mesenchymal stem cell growth medium 2 (PromoCell, cat. C-28009). For all experiments, HUVEC and hMSC were used at passages </=5, while the malignant cell lines were used at passages </=15. […]

[1] abbreviates: compound alone, run of 08/19/2021.
The mark [2] stands for this setting: compound alone, run of 08/26/2021.
Setting [3] is: compound alone, run of 09/02/2021.
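Further: compound exposure lasted 7 days before the readout.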

In the case of `C=CC(=O)N1CCN(c2nc(=O)n(-c3c(C)ccnc3C(C)C)c3nc(-c4c(O)cccc4F)c(F)cc23)C(C)C1` (stereo unspecified), the viability, T/C (compound 0.1 µM) was 92.7% [middle of 17 runs]. The half-inhibitory concentration (IC50) reads like this: under setting [1], above 10 µM; under setting [2], above 10 µM; under setting [3], above 10 µM.
As to `CC(=O)Nc1cccc(-n2c(=O)n(C3CC3)c(=O)c3c(Nc4ccc(I)cc4F)n(C)c(=O)c(C)c32)c1`, the viability, T/C was 92.7% [middle of 5 runs] (compound 0.0001 µM); 89.7% [middle of 5 runs] (compound 0.000316 µM); 84.2% [middle of 5 runs] (compound 0.001 µM); 64.2% [middle of 5 runs] (compound 0.00316 µM); 55% [middle of 5 runs] (compound 0.01 µM); 14% [middle of 5 runs] (compound 0.0316 µM). Further, the IC50 (curve of compound) was 9.89 nM [middle of 5 runs].
Turning to `CC(=O)OC12COC1CC(O)C1(C)C(=O)C(O)C3=C(C)C(OC(=O)C(O)C(NC(=O)OC(C)(C)C)c4ccccc4)CC(O)(C(OC(=O)c4ccccc4)C21)C3(C)C` (stereo unspecified), the viability, T/C is, setting by setting: (compound 0.0316 µM) 91.1% [middle of 5 runs]; (compound 0.1 µM) 84.7% [middle of 5 runs]; (compound 0.316 µM) 86.2% [middle of 5 runs]. For the same compound, the IC50 (curve of compound) was above 3.16 µM.
On to `CC(C)NCC(C(=O)N1CCN(c2ncnc3c2C(C)CC3O)CC1)c1ccc(Cl)cc1` (stereo unspecified), for which the viability, T/C was 91.2% [middle of 5 runs] (compound 0.0316 µM); 89.6% [middle of 5 runs] (compound 0.316 µM); 78.3% [middle of 5 runs] (compound 1 µM); 65.2% [middle of 5 runs] (compound 3.16 µM); 42.5% [middle of 5 runs] (compound 10 µM).
With `CC(C)n1nc(-c2ccc3oc(N)nc3c2)c2c(N)ncnc21`, the viability, T/C reads like this: (compound 0.000316 µM) 90.9% [middle of 5 runs]; (compound 0.001 µM) 92.8% [middle of 5 runs]; (compound 0.00316 µM) 66.5% [middle of 5 runs]; (compound 0.0316 µM) 26.9% [middle of 5 runs]; (compound 0.1 µM) 23.9% [middle of 5 runs].
For `CC1(C)CCC(CN2CCN(c3ccc(C(=O)NS(=O)(=O)c4ccc(NCC5CCOCC5)c([N+](=O)[O-])c4)c(Oc4cnc5[nH]ccc5c4)c3)CC2)=C(c2ccc(Cl)cc2)C1`, the viability, T/C by setting is: (compound 0.0316 µM) 99.5% [middle of 5 runs]; (compound 0.1 µM) 89.5% [middle of 5 runs]; (compound 0.316 µM) 91.4% [middle of 5 runs]; (compound 1 µM) 96.9% [middle of 5 runs]; (compound 3.16 µM) 33.6% [middle of 5 runs]; (compound 10 µM) 10.7% [middle of 5 runs]. Moreover, the IC50 (curve of compound) was 2.34 µM [middle of 5 runs].
With `CC1COCCN1c1cc(-c2ccnn2C)c2ccnc(-c3ccn[nH]3)c2n1` (stereo unspecified), the viability, T/C by setting is: (compound 0.1 µM) 23.9% [middle of 5 runs]; (compound 0.316 µM) 20.2% [middle of 5 runs]; (compound 1 µM) 21.8% [middle of 5 runs]; (compound 3.16 µM) 20.6% [middle of 5 runs]. Further, the IC50 (curve of compound) is 54.7 nM [middle of 5 runs].
Consider `CC1OCC2(CCN(c3cnc(Sc4ccnc(N)c4Cl)c(N)n3)CC2)C1N` (stereo unspecified), for which the viability, T/C (compound 0.0316 µM) is 97.1% and 83.5% and 83%. In addition, the IC50 is above 10 µM under setting [1], above 10 µM under setting [2], above 10 µM under setting [3] and above 10 µM (curve of compound).
On to `CCN1CCN(Cc2ccc(Nc3ncc(F)c(-c4cc(F)c5nc(C)n(C(C)C)c5c4)n3)nc2)CC1`, for which the viability, T/C was 85.5% [middle of 5 runs] (compound 0.00316 µM); 88.8% [middle of 5 runs] (compound 0.01 µM); 70.4% [middle of 5 runs] (compound 0.0316 µM); 70% [middle of 5 runs] (compound 0.1 µM); 65% [middle of 5 runs] (compound 0.316 µM); 48.4% [middle of 5 runs] (compound 1 µM). Also, the IC50 (curve of compound) is > 1 µM and 0.595 µM and 0.96 µM.
As to `CCNC(=O)CC1N=C(c2ccc(Cl)cc2)c2cc(OC)ccc2-n2c(C)nnc21` (stereo unspecified), the viability, T/C is, setting by setting: (compound 0.0316 µM) 92.4% [middle of 5 runs]; (compound 0.1 µM) 83% [middle of 5 runs]; (compound 0.316 µM) 72.3% [middle of 5 runs]; (compound 1 µM) 60.5% [middle of 5 runs]; (compound 3.16 µM) 47.1% [middle of 5 runs]; (compound 10 µM) 40.2% [middle of 5 runs].
Regarding `CN(C)C/C=C/C(=O)Nc1cc2c(Nc3ccc(F)c(Cl)c3)ncnc2cc1O[C@H]1CCOC1`, the viability, T/C by setting is: (compound 0.000316 µM) 94.5% [middle of 5 runs]; (compound 0.01 µM) 79.1% [middle of 5 runs]; (compound 0.1 µM) 79% [middle of 5 runs]. Further, the IC50 (curve of compound) was above 0.1 µM.
On to `COC(=O)c1ccc2c(C(=Nc3ccc(N(C)C(=O)CN4CCN(C)CC4)cc3)c3ccccc3)c(O)[nH]c2c1`, for which the viability, T/C by setting is: (compound 0.0316 µM) 85.8% [middle of 5 runs]; (compound 0.1 µM) 78.5% [middle of 5 runs]; (compound 0.316 µM) 69.6% [middle of 5 runs]; (compound 1 µM) 59.2% [middle of 5 runs]; (compound 3.16 µM) 0.6% [middle of 4 runs]; (compound 10 µM) 0.39% [middle of 4 runs]. The IC50 (curve of compound) was 1.2 µM [middle of 5 runs].
Consider `COc1cc(Nc2ncc3c(n2)-c2ccc(Cl)cc2C(c2c(F)cccc2OC)=NC3)ccc1C(=O)O`, for which the viability, T/C is, setting by setting: (compound 0.0316 µM) 83.6% [middle of 5 runs]; (compound 0.1 µM) 79.6% [middle of 5 runs]; (compound 0.316 µM) 79.4% [middle of 5 runs]; (compound 1 µM) 83.3% [middle of 5 runs]; (compound 3.16 µM) 85.9% [middle of 5 runs]; (compound 10 µM) 72.5% [middle of 5 runs]. Further, the IC50 (curve of compound) is above 10 µM.
As to `Cn1nccc1Nc1nccc(-c2cc3c(s2)C(C)(C)N(CCN2CCOCC2)C3=O)n1`, the viability, T/C reads like this: (compound 0.0316 µM) 91% [middle of 5 runs]; (compound 0.316 µM) 68.6% [middle of 5 runs]; (compound 1 µM) 30.6% [middle of 5 runs]; (compound 3.16 µM) 7.98% [middle of 5 runs]; (compound 10 µM) 4.32% [middle of 5 runs]. For the same compound, the IC50 (curve of compound) is 574 nM [middle of 4 runs].
For the compound `Cn1ncnc1[C@H]1c2n[nH]c(=O)c3cc(F)cc(c23)N[C@@H]1c1ccc(F)cc1`, the viability, T/C is 102% [middle of 5 runs] (compound 0.000316 µM); 97.8% [middle of 5 runs] (compound 0.001 µM); 98.9% [middle of 5 runs] (compound 0.00316 µM); 88.3% [middle of 5 runs] (compound 0.01 µM); 94.4% [middle of 5 runs] (compound 0.0316 µM). Further, the IC50 (curve of compound) was above 0.1 µM.
With `O=C(c1cc(Cc2n[nH]c(=O)c3ccccc23)ccc1F)N1CCN(C(=O)C2CC2)CC1`, the viability, T/C is, setting by setting: (compound 0.0316 µM) 83% [middle of 5 runs]; (compound 0.1 µM) 93% [middle of 5 runs]; (compound 0.316 µM) 87.8% [middle of 5 runs]; (compound 3.16 µM) 88.3% [middle of 5 runs]; (compound 10 µM) 80.5% [middle of 5 runs]. In addition, the IC50 (curve of compound) was above 10 µM.

For orientation: viability, T/C means the result in the treated group divided by that in the control group, in per cent. The term IC50 denotes the concentration that inhibits the measured activity by half.
